Reference: patent EP0609289B1, “IMIDAZOLE DERIVATIVES AND PHARMACEUTICAL COMPOSITIONS CONTAINING THE SAME” (THE UPJOHN COMPANY, priority 1991, dated 1993)

Experiments:
Angiotensin II receptor = test: In vitro angiotensin II mesenteric artery receptor binding assay (test 1); conditions: rat mesenteric artery membrane fraction, 0.2 nM 125I-Ang II, 22°C, 90 minutes
Procedure, shortened: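 Rat mesenteric artery membranes ([…] protein equivalent) incubated with 0.2 nM ^125I-Ang II and compound, 90 min at 22°C, pH 7.2 Tris buffer. Bound radioactivity counted after filtration; nonspecific binding defined with 1 µM unlabeled angiotensin II.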

[1] = test system: angiotensin II constriction in an isolated rabbit thoracic aorta; test: Antagonism to angiotensin II constriction in an isolated rabbit thoracic aorta (test 3); conditions: test compound 10^-6 M for 20 minutes
Description: 3) Antagonism to angiotensin II constriction in an isolated rabbit thoracic aorta
A rectangular strip-like sample of thoracic aorta isolated from an anaesthetized rabbit was prepared, and the sample was suspended at 2.0 g of loaded tension in a Magnus tube filled with Krebs-Henseleitoid nutrition solution which was well aerated with 95% O2-5% CO2, and the constriction tension was measured using an isometric transducer. After the tension of the sample at rest became stable, accumulative administration of angiotensin II was carried out to obtain a concentration-action curve. Thereafter, the sample was washed with the same nutrition solution, then treated with test compound (10^-6 M) for 20 minutes to obtain again a concentration-action curve of angiotensin II. The results were obtained as followed: generated maximum tension at the first accumulative administration of angiotensin II was regarded as 100 %, and the 50 % effective concentration (ED50) was obtained in the presence or absence of the test compound, and pA2 value was calculated according to the following equations: • pA2=-logKB KB=C/{(A'/A)-1} • C; concentration of the test compound (M) • A'; ED50 in the presence of test compound (M) • A; ED50 in the absence of the test compound (M)

[2] = test system: blood pressure increase by angiotensin II; test: Antagonism to blood pressure increase by angiotensin II in a spine destroyed (pithed) rat (test 4); format: in vivo, Wistar rat; conditions: intravenous administration, 3µg/kg angiotensin II, read-out: Inhibition of blood pressure increase by angiotensin II in pithed rat ED50(mg/kg) (test 4)
Source text: 4) Antagonism to blood pressure increasing by angiotensin II in a spine destroyed rat
Wistar rat anaesthetized with pentobarbital was fixed at dorsal position, and a cannula for measuring blood pressure was inserted into sinister arteria carotis communis, and a cannula for administration of the test compound into dexter external jugular vein and a cannula for administration of angiotensin II into sinister external jugular vein, ambilateral nervus vagus was cut, and artificial respiration was carried out. A thin bar made of metal was stabbed into spinal column through sinister orbita to destroy spine. Blood pressure was recorded on polygraph via pressure transducer from an arterial cannula. After blood pressure was stable for more than 30 min., 3µg/kg of angiotensin II was administered intravenously four times every 15 min, and every 5 min. before the administration of angiotensin II from the second administration onward, a solvent, a lower dose of the test compound, and a higher dose of the test compound were administered intravenously in this order to observe the blood pressure increasing response by angiotensin II. ED50 values were calculated from the inhibiting rate when the first blood pressure increase by angiotensin II was regarded as 100 %.

Compound | IC50 (Angiotensin II receptor) [nM] | Inhibition of rabbit aorta constriction pA2 (test 3) [1] | ED50 [2] [mg/kg]
CCCc1nc2c(=O)n3n(c(=O)c2n1Cc1ccc(-c2ccccc2-c2nn[nH]n2)cc1)C(C)CCC3C(=O)OCC (stereo not drawn) [Compound No. 139, ethyl 4,9-dioxo-8-methyl-2-n-propyl-5,6,7,8-tetrahydro-1-[(2'-(1H-tetrazol-5-yl)biphenyl-4-yl)methyl]-1H-1,3,4a,8a-tetraza-cyclopentanaphthalene-5-carboxylate] | 1.9 | 10.63 | 0.038
CCCCc1nc2c(=O)n3n(c(=O)c2n1Cc1ccc(-c2ccccc2-c2nnn[nH]2)cc1)C1CCC3(CO)CC1 [Compound No. 220, 2-n-butyl-5,8-ethano-5-hydroxymethyl-5,6,7,8-tetrahydro-1-[{2'-(1H-tetrazol-5-yl)biphenyl-4-yl}methyl]-1H-1,3,4a,8a-tetraza-cyclopentanaphthalene-4,9-dione] | 2.6 | 9.93 | 0.27
CCCCc1nc2c(=O)n3n(c(=O)c2n1Cc1ccc(-c2ccccc2-c2nn[nH]n2)cc1)CC(C)C(C)C3 (stereo not drawn) [Compound No. 51, 2-n-butyl-6,7-dimethyl-5,6,7,8-tetrahydro-1-[(2'-(1H-tetrazol-5-yl)biphenyl-4-yl)methyl]-1H-1,3,4a,8a-tetraza-cyclopentanaphthalene-4,9-dione] | 4.6 | 9.04 | 0.65
CCCc1nc2c(n1Cc1ccc(-c3ccccc3-c3nn[nH]n3)cc1)C(=O)N1C3CCC(CC3)N1C2 [Compound No. 438, 5,8-ethano-2-n-propyl-5,6,7,8-tetrahydro-1-[{2'-(1H-tetrazol-5-yl)biphenyl-4-yl}methyl],1H,4H-1,3,4a,8a-tetraza-cyclopentanaphthalene-9-one] | 7.5 | 8.57 | 0.37
CCCc1nc2c(=O)n3n(c(=O)c2n1Cc1ccc(-c2ccccc2-c2nn[nH]n2)cc1)CCCC3 [Compound No. 46, 2-n-propyl-5,6,7,8-tetrahydro-1-[(2'-(1H-tetrazol-5-yl)biphenyl-4-yl)methyl]-1H-1,3,4a,8a-tetraza-cyclopentanaphthalene-4,9-dione] | 3.3 | 8.95 | 

The next lines start with results.

IC50 (Angiotensin II receptor) [nM] | Compound | Inhibition of rabbit aorta constriction pA2 (test 3) [1] | ED50 [2] [mg/kg]
21 | CCCc1nc2c(=O)n3n(c(=O)c2n1Cc1ccc(-c2ccccc2-c2nn[nH]n2)cc1)C(C)CCC3C(=O)O (stereo not drawn) [Compound No. 111, 4,9-dioxo-8-methyl-2-n-propyl-5,6,7,8-tetrahydro-1-[(2'-(1H-tetrazol-5-yl)biphenyl-4-yl)methyl]-1H-1,3,4a,8a-tetraza-cyclopentanaphthalene-5-carboxylic acid] | 9.01 | 0.51
1.5 | CCCc1nc2c(=O)n3n(c(=O)c2n1Cc1ccc(-c2ccccc2-c2nn[nH]n2)cc1)C1C=CC3CC1 (stereo not drawn) [Compound No. 105, 5,8-dihydro-5,8-ethano-2-n-propyl-1-[(2'-(1H-tetrazol-5-yl)biphenyl-4-yl)methyl]-1H-1,3,4a,8a-tetraza-cyclopentanaphthalene-4,9-dione] | 9.42 | 0.1
7 | CCCCc1nc2c(=O)n3n(c(=O)c2n1Cc1ccc(-c2ccccc2-c2nn[nH]n2)cc1)CC=CC3 [Compound No. 71, 2-n-butyl-5,8-dihydro-1-[(2'-(1H-tetrazol-5-yl)biphenyl-4-yl)methyl]-1H-1,3,4a,8a-tetraza-cyclopentanaphthalene-4,9-dione] | 9.09 | 
3.8 | CCCCc1nc2c(=O)n3n(c(=O)c2n1Cc1ccc(-c2ccccc2-c2nn[nH]n2)cc1)C1C=CC3CC1 (stereo not drawn) [compound 106, 2-n-butyl-5,8-dihydro-5,8-ethano-1-[(2'-(1H-tetrazol-5-yl)biphenyl-4-yl)methyl]-1H-1,3,4a,8a-tetraza-cyclopentanaphthalene-4,9-dione] | 9.2 | 
